# Values quoted from earlier work as cited in patent US9371350B2, “Trehalose derivatives and pharmaceutical compositions for treating neurodegenerative diseases” (POSTECH ACADEMY-INDUSTRY FOUNDATION, priority 2008, dated 2016).
# How the values were obtained:
# [1] = background, literature report
# [2] = system: polyglutamine-induced aggregate formation; details: in vivo mouse model, literature report
SMILES,passage through the BBB to the brain [1],inhibition of polyglutamine-induced aggregate formation [2]
OC[C@H]1O[C@H](O[C@H]2O[C@H](CO)[C@@H](O)[C@H](O)[C@H]2O)[C@H](O)[C@@H](O)[C@@H]1O [trehalose],cannot pass through the BBB,efficiently inhibit
O[C@H]1[C@H](O)[C@@H](O)[C@H](O)[C@@H](O)[C@H]1O [inositol],difficulty in passing through the blood-brain barrier,
